Where “and” joins values, the source holds several entries; their conditions need not be identical. Equal entries are not always repeated. Structures can show the parent of a compound that is named as a salt.
Details: Liquid, Gas Saturation Method

CCCOC(=O)CC(=O)OCCC [dipropyl 1,3-propanedioate]
Details	vapor or sublimation pressure [kPa]
293.3 K	0.00356
298.3 K	0.00582
299.4 K	0.00652
303.2 K	0.00897
307.3 K	0.0129
308.2 K	0.0135
311.3 K	0.0178
313.3 K	0.0199
315.3 K	0.0245
318.5 K	0.0296
319.4 K	0.0332
323.4 K	0.0426
328.5 K	0.0622
333.5 K	0.089
336.4 K	0.1095
338.5 K	0.13

CCCCOC(=O)CCC(=O)OCCCC [butanedioic acid, dibutyl ester]
Details	vapor or sublimation pressure [kPa]
313.3 K	0.00132
316.2 K	0.0017
318.3 K	0.00205
320.2 K	0.00248
323.2 K	0.00325
325.2 K	0.00383
328.2 K	0.00489
330.2 K	0.00577
333.2 K	0.00743
335.4 K	0.00877
338.2 K	0.011
340.1 K	0.0121
343.2 K	0.0164
346.2 K	0.0197
349.2 K	0.0247
352.1 K	0.0319
355.1 K	0.0387
358.2 K	0.0473

CCCOC(=O)C(=O)OCCC [di-n-propyl oxalate]
Details	vapor or sublimation pressure [kPa]
293.6 K	0.00943
298.5 K	0.0139
301.4 K	0.0175
306.4 K	0.0255
308.4 K	0.0304
311.4 K	0.0362
313.4 K	0.0413
316.3 K	0.052
318.6 K	0.0626
321.4 K	0.0741
323.3 K	0.0903
326.3 K	0.1085
328.3 K	0.1248
330.4 K	0.1423
333.5 K	0.1801

CCOC(=O)CC(=O)OCC [diethyl 1,3-propanedioate]
Details	vapor or sublimation pressure [kPa]
283.8 K	0.00689
286.2 K	0.00858
289.2 K	0.0115
292.3 K	0.015
295.2 K	0.0193
298.2 K	0.0251
301.3 K	0.0321
304.2 K	0.0405
304.7 K	0.0428
307.3 K	0.0513
310.2 K	0.0646
313.3 K	0.0814
316.3 K	0.1005

CCCCOC(=O)CCCCC(=O)OCCCC [dibutyl hexanedioate]
Details	vapor or sublimation pressure [kPa]
313.2 K	0.00018
318.2 K	0.0003
323.2 K	0.00048
328.2 K	0.00079
333.3 K	0.00127
338.4 K	0.00202
343.1 K	0.00304
348.2 K	0.00467
353.2 K	0.00705
358.2 K	0.0102
363.2 K	0.0143
368.2 K	0.0201
373.2 K	0.0285

CCCCOC(=O)C(=O)OCCCC [di-n-butyl oxalate]
Details	vapor or sublimation pressure
291.4 K	0.00087 kPa
293.4 K	0.0011 kPa
295.7 K	0.00143 kPa
298.8 K	0.00182 kPa
300.4 K	0.00209 kPa
302.3 K	0.00249 kPa
302.8 K	0.00276 kPa
303.3 K	0.00283 kPa
305.2 K	0.0034 kPa
305.3 K	0.00334 kPa
308.2 K	0.00446 kPa
308.3 K	0.00433 kPa
308.4 K	0.00448 kPa
311.3 K	0.00565 kPa
312.3 K	0.00624 kPa
313.2 K	0.0066 kPa
314.3 K	0.00737 kPa
315.5 K	0.00855 kPa
317.4 K	0.00937 kPa
317.8 K	0.0105 kPa
318.2 K	0.0105 kPa
319.9 K	0.0124 kPa
320.2 K	0.0115 kPa
322.5 K	0.0149 kPa
323.2 K	0.0159 kPa
323.4 K	0.0151 kPa
325.3 K	0.0176 kPa and 0.018 kPa
326.4 K	0.0193 kPa
327.5 K	0.0215 kPa
328.2 K	0.0223 kPa
328.5 K	0.0226 kPa
330.3 K	0.0254 kPa
331.1 K	0.0289 kPa
331.4 K	0.0292 kPa
333.2 K	0.0339 kPa
333.5 K	0.0346 kPa and 0.0333 kPa
335.2 K	0.0375 kPa
336.3 K	0.0414 kPa
337 K	0.0434 kPa
338.1 K	0.0475 kPa
338.6 K	0.0475 kPa
340.2 K	0.0543 kPa
340.8 K	0.0586 kPa
341.4 K	0.0568 kPa
343.2 K	0.0651 kPa
343.4 K	0.0693 kPa
343.5 K	0.0645 kPa
345.2 K	0.0741 kPa
348.3 K	0.0962 kPa
351.2 K	0.1137 kPa
353.1 K	0.1332 kPa
358.2 K	0.1811 kPa

CCOC(=O)CCCC(=O)OCC [diethyl glutarate]
Details	vapor or sublimation pressure [kPa]
298.3 K	0.00352
303.4 K	0.00575
308.6 K	0.00877
311.2 K	0.0108
313.5 K	0.0134
316.2 K	0.0161
318.2 K	0.0185
318.5 K	0.02
322.2 K	0.0254
323.3 K	0.0277
328.2 K	0.0405
333.2 K	0.0601
338.2 K	0.0874
343.2 K	0.1236
347.9 K	0.1725

CCCCOC(=O)CCCC(=O)OCCCC [dibutyl pentanedioate]
Details	vapor or sublimation pressure
317.5 K	0.00064 kPa
318.3 K	0.0007 kPa
322.4 K	0.00103 kPa
323.4 K	0.00114 kPa and 0.00113 kPa
325.4 K	0.00132 kPa
326.5 K	0.00145 kPa
328.4 K	0.00179 kPa and 0.00173 kPa
330.6 K	0.0021 kPa
331.5 K	0.00229 kPa
333.5 K	0.00273 kPa
334.6 K	0.00306 kPa
334.7 K	0.00298 kPa
337.6 K	0.00375 kPa
338.6 K	0.00404 kPa
340.5 K	0.00475 kPa
343.3 K	0.006 kPa
346.6 K	0.00782 kPa
349.6 K	0.00973 kPa
350.3 K	0.0103 kPa
352.5 K	0.0121 kPa
354.7 K	0.0145 kPa
357.5 K	0.0177 kPa
360.6 K	0.0213 kPa
363.4 K	0.026 kPa
366.4 K	0.0318 kPa
369.5 K	0.0403 kPa

CCCOC(=O)CCCC(=O)OCCC [pentanedioic acid, dipropyl ester]
Details	vapor or sublimation pressure [kPa]
313.3 K	0.00276
316.4 K	0.00359
318.5 K	0.00444
319.4 K	0.00478
322.5 K	0.00609
323.5 K	0.00637
325.4 K	0.00778
328.5 K	0.01
329.5 K	0.0109
331.4 K	0.0128
333.6 K	0.0149
336.4 K	0.0184
338.5 K	0.022
341.4 K	0.0271
343.6 K	0.031
346.4 K	0.0385
348.4 K	0.0432
350.5 K	0.0504
353.5 K	0.0628

CCOC(=O)CCC(=O)OCC [diethyl butanedioate]
Details	vapor or sublimation pressure
290.2 K	0.00495 kPa
290.5 K	0.00504 kPa
293.5 K	0.00678 kPa
296.4 K	0.00861 kPa
301.4 K	0.0134 kPa
306.4 K	0.0208 kPa
311.4 K	0.0313 kPa
313.4 K	0.035 kPa
316.4 K	0.0455 kPa
318.4 K	0.0503 kPa
321.4 K	0.0661 kPa
323.5 K	0.0777 kPa
326.5 K	0.0941 kPa and 0.0963 kPa
328.5 K	0.1125 kPa
331.4 K	0.133 kPa
331.6 K	0.1351 kPa
333.6 K	0.1517 kPa
336.5 K	0.1864 kPa
339.4 K	0.2221 kPa
342.4 K	0.2658 kPa
345.5 K	0.3425 kPa

CCOC(=O)C(=O)OCC [diethyl ethanedioate]
Details	vapor or sublimation pressure [kPa]
283.6 K	0.0164
288.5 K	0.0256
293.4 K	0.0392
298.3 K	0.0571
303.3 K	0.0814
308.4 K	0.1254
311.3 K	0.1509
313.5 K	0.175
316.4 K	0.2075
318.3 K	0.2434
321.4 K	0.2972
325.4 K	0.3834
329.5 K	0.4832
333.5 K	0.6275

CCCOC(=O)CCCCC(=O)OCCC [dipropyl hexanedioate]
Details	vapor or sublimation pressure [kPa]
318.8 K	0.00173
321.7 K	0.00222
323.5 K	0.0026
327.4 K	0.00367
333.2 K	0.00602
336.1 K	0.00765
339.1 K	0.00972
342.1 K	0.0122
345.5 K	0.0152
348.3 K	0.0196
351.5 K	0.0253
354.2 K	0.0306
357.1 K	0.0373
361.2 K	0.0485
365.3 K	0.0639

CCOC(=O)CCCCC(=O)OCC [diethyl hexanedioate]
Details	vapor or sublimation pressure [kPa]
303.5 K	0.0022
308.2 K	0.00343
313.3 K	0.00523
318.2 K	0.00793
323.1 K	0.0118
328.2 K	0.0185
329.6 K	0.0209
333.2 K	0.0273
335.2 K	0.0323
338.2 K	0.039
340.2 K	0.0462
343.2 K	0.0561
346.2 K	0.0698
349.1 K	0.0851
352.2 K	0.1061

CCCCOC(=O)CC(=O)OCCCC [dibutyl 1,3-propanedioate]
Details	vapor or sublimation pressure [kPa]
303.2 K	0.00138
308.3 K	0.00223
313.3 K	0.00366
318.3 K	0.00557
323.2 K	0.00878
325.1 K	0.0101
328.2 K	0.0131
330.2 K	0.0152
333.2 K	0.0193
335.2 K	0.0217
338.2 K	0.0267
340.2 K	0.0325
343.2 K	0.0407
345.2 K	0.0454
349.1 K	0.0586
353.1 K	0.0788
357.2 K	0.1022
361.2 K	0.1343
365.2 K	0.1672
369.2 K	0.2174

CCCOC(=O)CCC(=O)OCCC [butanedioic acid, dipropyl ester]
Details	vapor or sublimation pressure [kPa]
308.3 K	0.00487
312.4 K	0.00685
316.4 K	0.00936
318.5 K	0.0111
321.5 K	0.0139
323.5 K	0.0163
326.4 K	0.0209
328.6 K	0.0252
331.3 K	0.0303
333.4 K	0.0362
336.5 K	0.0443
338.5 K	0.0509
341.5 K	0.0625
343.5 K	0.0723
